From patent US8927523B2, “Compound sea cucumber preparation and manufacturing method thereof” (Dalian Haiyantang Biology Co., Ltd., priority 2010, dated 2015)

What was measured:
[1] = test system: insulin resistance HepG2 cells; assay: Cell proliferation of insulin resistance HepG2 cells with MTT method; assay type: cell-based, Human; settings: 30 mg/L
[2] = test system: experimental diabetic mice caused by alloxan; assay: Glucose tolerance of experimental diabetic mice caused by alloxan; assay type: in vivo; settings: 200 mg/kg b.i.d.
Protocol: Building of mice high glucose model, animal grouping and treating ways are the same as above description.
[formula] wherein, C is the plasma glucose value (mmol/L), t is the time after glucose load (h), i is the glucose value number; C0, C1, C2, C3, C4 are respectively plasma glucose value of before glucose load (0 min) and 30 min, 60 min, 120 min and 240 min after glucose load.

[3] = test system: insulin resistance HepG2 cells; assay: Glycerin consumption of insulin resistance HepG2 cells (GPO-POD enzyme method); assay type: cell-based, Human; settings: 30 mg/L
Protocol: (§1) Human liver cancer cell line HepG2 provided by Dalian Medical University is vaccinated in a DMEM culture medium which contains 10% volume fraction of fetal calf serum (supplementing penicillin, streptomycin […] respectively), and the culture medium is placed in a 5% CO2 cell culture box at 37° C. […] Incubate for 8 h in culture box in the conditions of 37° C. and 5% CO2 to form monolayer anchorage-dependent cells. Wash the cells twice with DMEM culture solution without fetal calf serum, then incubate the cells for 16 h with 5×10^−7 mol·L^−1 insulin culture solution in culture box in the conditions of 37° C. and 5% CO2. The HepG2 cells incubated for 16 h with insulin culture solution are model cells. Count the prepared cell suspension, adjust the cell concentration to 5×10^4·ml^−1, vaccinate on 96-well cell culture plate, 8-well in duplicate for each group, total amount of 200 uL for each well. The experiment is divided into 5 groups: normal control group, insulin resistance model group, compound sea cucumber preparation high and low dosage groups and metformin positive control group. Except the normal control group, each other group is incubated for 16 h after adding insulin with ultimate concentration of 5×10^−7 mol·L^−1 into culture solution so as to form insulin resistance model. […]

[4] = test system: experimental diabetic mice caused by alloxan; assay: Fasting plasma glucose of experimental diabetic mice caused by alloxan; assay type: in vivo; settings: 200 mg/kg b.i.d. irrigating stomachs
Protocol: Take male, 18˜22 g Kunming variety mice, randomly take 10 mice from them as normal control group. Other mice are injected with alloxan 50 mg/kg after fasting (water is allowed) for 16 h, determine the fasting plasma glucose (FPG) fasting for 5 h after the mice are stable for 15 days, mice with FPG>10 mmol/L are high plasma glucose model mice.
10 mice for normal control group. Take 40 high plasma glucose mice, randomly divide into high plasma glucose model group, compound sea cucumber preparation high dosage (0.5 g/kg) group, compound sea cucumber preparation low dosage (0.25 g/kg) group and positive drug metformin 200 mg/kg group.
Mice of the compound sea cucumber preparation high dosage group and the compound sea cucumber preparation low dosage group are respectively treated with 0.025 g/ml and 0.0125 g/ml suspension of compound sea cucumber preparation and normal saline 0.2 mL/10 gBW by irrigating stomachs, mice of the metformin 200 mg/kg group are treated with […] metformin normal saline solution 0.2 mL/10 gBW by irrigating stomachs, while mice of the normal control group and high plasma glucose model group are treated with equal volume of normal saline by irrigating stomachs. Mice of each group are treated twice each day (b.i.d) continuously for 4 weeks.

[5] = test system: insulin resistance HepG2 cells; assay: Glucose consumption of insulin resistance HepG2 cells (glucose oxidase method); assay type: cell-based, Human; settings: 30 mg/L
Protocol: as §1

[6] = 28th day, 2 g/kg glucose by abdomen injection
[7] = 24 h, compared with model group
[8] = vs high plasma glucose model group

## CN(C)C(=N)N=C(N)N [Metformin, metformin]
[1]
  Cell increase %: 0.28%
  Cell survival %: 100.28 ± 1.93Δ %
[2]; 28th day, 0-240 min, trapezoid area method
  Area under the glucose load curve (ADC, mmol · h/L): 106.05 ± 12.0 mmol·h/L
[2]; [6]
  Plasma Glucose after glucose load 30 min: 31.68 ± 2.78 mmol/L
  Plasma Glucose after glucose load 60 min: 31.19 ± 3.42 mmol/L
  Plasma Glucose after glucose load 120 min: 27.43 ± 4.37 mmol/L
  Plasma Glucose after glucose load 240 min: 20.49 ± 2.58 mmol/L
[2]; 28th day, vs high plasma glucose model group
  AUC reduce %: 18.2%
[2]; 28th treating day, before glucose load
  Fasting Plasma Glucose (FPG, mmol/L): 20.72 ± 3.03 mmol/L
[3]; [7]
  Glycerin consumption increase %: 165.97%
[3]; 24 h after treating
  Glycerin consumption: 0.39 ± 0.02 mmol/L
[4]; n=10
  Fasting Plasma Glucose (FPG) 7 days after treating: 18.80 ± 2.77 mmol/L
  Fasting Plasma Glucose (FPG) 14 days after treating: 24.59 ± 4.17 mmol/L
  Fasting Plasma Glucose (FPG) 21 days after treating: 21.18 ± 3.12 mmol/L
  Fasting Plasma Glucose (FPG) 28 days after treating: 20.72 ± 3.03 mmol/L
  Weight 28 days after treating: 31.76 ± 1.74 g
[4]; [8]
  FPG Reduce % 7 days after treating: 21.7%
  FPG Reduce % 14 days after treating: 17.1%
  FPG Reduce % 21 days after treating: 29.5%
  FPG Reduce % 28 days after treating: 31.3%
[5]; [7]
  Glucose consumption increase %: 115.10%
[5]; 24 h after treating
  Glucose consumption: 2.83 ± 0.14 mmol/L
